Patent US20240391936A1, “TETRAHYDROTHIENO PYRIDINE DERIVATIVES AS DDRS INHIBITORS” (CHIESI FARMACEUTICI S.P.A., priority 2021, published 2024)

What was measured:
DDR2 [1] = target: T1, DDR2 (Homo sapiens, UniProt Q16832); assay: DDR2 binding assay (LanthaScreen Europium Kinase Binding assay); parameters: purchased Life Technologies; details: binding assay, 5 nM DDR2, 10 nM Kinase Tracer 178; Ki from IC50 by Cheng-Prusoff; read-out: Ki DDR2
T1 sequence (Q16832 22-855): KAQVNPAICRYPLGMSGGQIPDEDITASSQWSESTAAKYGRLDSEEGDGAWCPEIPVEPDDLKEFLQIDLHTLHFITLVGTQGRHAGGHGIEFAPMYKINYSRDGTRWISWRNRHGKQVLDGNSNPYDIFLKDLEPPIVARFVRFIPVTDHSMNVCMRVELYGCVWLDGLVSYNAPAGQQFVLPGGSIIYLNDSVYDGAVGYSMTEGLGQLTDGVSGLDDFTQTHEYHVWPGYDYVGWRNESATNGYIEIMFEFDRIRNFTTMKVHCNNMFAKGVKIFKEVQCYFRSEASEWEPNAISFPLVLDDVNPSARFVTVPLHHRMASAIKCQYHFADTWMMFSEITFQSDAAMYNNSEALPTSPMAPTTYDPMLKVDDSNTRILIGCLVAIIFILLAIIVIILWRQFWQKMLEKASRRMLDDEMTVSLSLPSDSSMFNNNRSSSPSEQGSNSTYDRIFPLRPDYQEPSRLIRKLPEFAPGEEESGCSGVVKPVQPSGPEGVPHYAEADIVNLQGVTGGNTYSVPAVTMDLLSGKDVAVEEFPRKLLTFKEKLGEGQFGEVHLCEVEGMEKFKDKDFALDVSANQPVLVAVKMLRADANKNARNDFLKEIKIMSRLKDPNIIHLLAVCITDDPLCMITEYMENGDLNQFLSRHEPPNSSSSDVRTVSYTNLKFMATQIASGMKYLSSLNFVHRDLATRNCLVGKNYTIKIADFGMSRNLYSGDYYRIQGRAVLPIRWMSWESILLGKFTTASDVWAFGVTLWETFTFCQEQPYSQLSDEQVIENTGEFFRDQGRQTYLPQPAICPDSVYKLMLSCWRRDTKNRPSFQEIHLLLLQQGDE
Outline: (§1)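 Compounds incubated 1 h at room temperature with 5 nM kinase, Kinase Tracer 178 (20 nM for DDR1, 10 nM for DDR2) and 2 nM Eu-anti-GST antibody in pH 7.5 HEPES/MgCl2/EGTA/BRIJ35 buffer. TR-FRET 665/615 nm ratio read after 340 nm excitation; IC50 from 4-parameter fit, converted to Ki by Cheng-Prusoff.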

DDR1 [2] = target: T2, DDR1 (Homo sapiens, UniProt Q08345); assay: DDR1 cell based assay (PathHunter U2OS DDR1 assay); parameters: host or cells: U2OS-DDR1 (PathHunter); details: U2OS-DDR1 cells, bovine Type II Collagen 20 μg/ml
T2 sequence (Q08345 19-913): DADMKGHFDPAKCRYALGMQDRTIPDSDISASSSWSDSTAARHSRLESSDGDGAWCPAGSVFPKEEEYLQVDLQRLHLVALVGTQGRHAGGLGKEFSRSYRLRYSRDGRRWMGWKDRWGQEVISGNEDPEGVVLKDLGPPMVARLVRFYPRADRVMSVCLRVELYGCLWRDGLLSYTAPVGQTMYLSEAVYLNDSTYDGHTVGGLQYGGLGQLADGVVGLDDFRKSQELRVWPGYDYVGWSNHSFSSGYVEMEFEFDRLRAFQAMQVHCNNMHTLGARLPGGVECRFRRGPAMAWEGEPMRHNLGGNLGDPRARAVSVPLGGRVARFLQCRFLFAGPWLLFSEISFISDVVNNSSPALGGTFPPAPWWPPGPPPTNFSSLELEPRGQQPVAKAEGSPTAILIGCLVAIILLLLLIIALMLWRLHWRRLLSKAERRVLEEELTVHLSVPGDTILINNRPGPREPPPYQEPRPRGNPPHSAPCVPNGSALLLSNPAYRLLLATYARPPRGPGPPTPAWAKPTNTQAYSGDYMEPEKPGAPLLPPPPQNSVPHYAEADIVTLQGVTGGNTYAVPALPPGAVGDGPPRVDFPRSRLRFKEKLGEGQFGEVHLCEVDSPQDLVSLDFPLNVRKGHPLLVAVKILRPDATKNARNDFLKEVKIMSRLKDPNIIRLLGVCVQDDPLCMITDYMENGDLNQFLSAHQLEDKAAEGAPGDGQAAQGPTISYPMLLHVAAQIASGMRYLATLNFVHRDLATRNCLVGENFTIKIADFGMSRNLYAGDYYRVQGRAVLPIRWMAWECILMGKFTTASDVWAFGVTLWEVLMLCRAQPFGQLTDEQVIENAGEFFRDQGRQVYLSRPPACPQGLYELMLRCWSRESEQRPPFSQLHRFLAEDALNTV
Outline: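 U2OS-DDR1 PathHunter cells preincubated 30 min with compound, then stimulated overnight at 37 °C with 20 μg/ml bovine type II collagen. Luminescent complementation signal read after 1 h detection at room temperature; normalized to vehicle (0%) and collagen-only (100%) controls, IC50 from variable-slope sigmoidal fit.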

DDR1 [3] = target: T2, DDR1; assay: DDR1 binding assay (LanthaScreen Europium Kinase Binding assay); parameters: purchased Carna Biosciences; details: binding assay, 5 nM DDR1, 20 nM Kinase Tracer 178; Ki from IC50 by Cheng-Prusoff; read-out: Ki DDR1
Outline: as §1

DDR2 [4] = target: T1, DDR2; assay: DDR2 cell based assay (phospho-ELISA in HEK293T-DDR2 recombinant cells); parameters: expressed in transfected cells; host or cells: HEK293T-DDR2 recombinant cells; details: bovine Type II Collagen 50 μg/ml
Description: The inhibition of DDR2 phosphorylation by compounds was evaluated in HEK293T-DDR2 recombinant cells by phospho-ELISA assay. Briefly, HEK293T-DDR2 cells were seeded in poly-D-lysine-coated 24-well plates at a density of 250.000 cells/well and incubated for 1.5 hours at 37° C. and 5% CO2 in DMEM+10% FBS. After that, the medium was changed to serum-free DMEM and cells were incubated for 3 hours. Then. test compounds were added at different concentrations 30 minutes before stimulation with bovine Type II Collagen at 50 μg/ml for further 3 hours. For DDR2 phospho-ELISA assay (DuoSet IC Human Phospho-DDR2; R&D Systems), protein extracts were obtained by adding 60 μl/well of lysis buffer prepared according to the manufacturer's instructions. Protein concentration in the samples was determined by BCA assay and the levels of phospho-DDR2 were determined following R&D Systems indications. Raw data were normalized to maximal inhibition control (0% for normalization) and positive control (100% for normalization; cells treated with […] collagen II) and IC50 parameters were calculated in GraphPad Prism 8.0 software, using sigmoidal dose-response curve fitting with variable slope.

| SMILES | Ki (DDR2 [1]) [nM] | IC50 (DDR1 [2]) [nM] | Ki (DDR1 [3]) [nM] | IC50 (DDR2 [4]) [nM] |
| --- | --- | --- | --- | --- |
| CC(C)(C)c1cc(NC(=O)c2csc3c2CCN(Cc2cnc4[nH]ncc4c2)C3)on1 [Example 133, 6-((1H-pyrazolo[3,4-b]pyridin-5-yl)methyl)-N-(3-(tert-butyl)isoxazol-5-yl)-4,5,6,7-tetrahydrothieno[2,3-c]pyridine-3-carboxamide] | < 25 | < 25 | < 25 | < 25 |
| CC(C)(C)c1cc(NC(=O)c2csc3c2CCN(Cc2cnc4[nH]ncc4c2)C3)no1 [Example 134, 6-((1H-pyrazolo[3,4-b]pyridin-5-yl)methyl)-N-(5-(tert-butyl)isoxazol-3-yl)-4,5,6,7-tetrahydrothieno[2,3-c]pyridine-3-carboxamide] | < 25 | < 25 | < 25 | < 25 |
| CN1CCN(c2ccc3ncc(C(=O)N4CCc5c(C(=O)Nc6cccc(C(F)(F)F)c6)csc5C4)n3c2)CC1 [Example 136, 6-(6-(4-methylpiperazin-1-yl)imidazo[1,2-a]pyridine-3-carbonyl)-N-(3-(trifluoromethyl)phenyl)-4,5,6,7-tetrahydrothieno[2,3-c]pyridine-3-carboxamide] | < 25 | < 25 | < 25 | < 25 |
| Cc1n[nH]c2ncc(CN3CCc4c(C(=O)Nc5cncc(C(F)(F)F)c5)csc4C3)cc12 [Example 150, 6-((3-methyl-1H-pyrazolo[3,4-b]pyridin-5-yl)methyl)-N-(5-(trifluoromethyl)pyridin-3-yl)-4,5,6,7-tetrahydrothieno[2,3-c]pyridine-3-carboxamide] | < 25 | < 25 | < 25 | < 25 |
| O=C(Nc1cncc(C(F)(F)F)c1)c1csc2c1CCN(Cc1cnc3[nH]ncc3c1)C2 [Example 151, 6-(1H-pyrazolo[3,4-b]pyridin-5-ylmethyl)-N-[5-(trifluoromethyl)-3-pyridyl]-5,7-dihydro-4H-thieno[2,3-c]pyridine-3-carboxamide] | < 25 | < 25 | < 25 | < 25 |
| O=C(Nc1cncc(C(F)(F)F)c1)c1csc2c1CCN(Cc1cnc3ccnn3c1)C2 [Example 152, 6-(pyrazolo[1,5-a]pyrimidin-6-ylmethyl)-N-(5-(trifluoromethyl)pyridin-3-yl)-4,5,6,7-tetrahydrothieno[2,3-c]pyridine-3-carboxamide] | < 25 | < 25 | < 25 | < 25 |
| O=C(Nc1cncc(C(F)(F)F)c1)c1csc2c1CCN(Cc1cnc3cnccn13)C2 [Example 153, 6-(imidazo[1,2-a]pyrazin-3-ylmethyl)-N-(5-(trifluoromethyl)pyridin-3-yl)-4,5,6,7-tetrahydrothieno[2,3-c]pyridine-3-carboxamide] | < 25 | < 25 | < 25 | < 25 |
| CN(C)[C@@H]1CCN(Cc2cc(NC(=O)c3csc4c3CCN(Cc3cnc5[nH]ncc5c3)C4)cc(C(F)(F)F)c2)C1 [Example 158, (R)-6-((1H-pyrazolo[3,4-b]pyridin-5-yl)methyl)-N-(3-((3-(dimethylamino)pyrrolidin-1-yl)methyl)-5-(trifluoromethyl)phenyl)-4,5,6,7-tetrahydrothieno[2,3-c]pyridine-3-carboxamide] | < 25 | < 25 | < 25 | 25 to 50 |
| CN1CCN(c2ccc3ncc(C(=O)N4CCc5c(C(=O)Nc6cncc(C(F)(F)F)c6)csc5C4)n3c2)CC1 [Example 165, 6-(6-(4-methylpiperazin-1-yl)imidazo[1,2-a]pyridine-3-carbonyl)-N-(5-(trifluoromethyl)pyridin-3-yl)-4,5,6,7-tetrahydrothieno[2,3-c]pyridine-3-carboxamide] | < 25 | < 25 | < 25 | 25 to 50 |
| O=C(Nc1cc(F)cc(OC(F)(F)F)c1)c1csc2c1CCN(Cc1cnc3[nH]ncc3c1)C2 [Example 174, 6-((1H-pyrazolo[3,4-b]pyridin-5-yl)methyl)-N-(3-fluoro-5-(trifluoromethoxy)phenyl)-4,5,6,7-tetrahydrothieno[2,3-c]pyridine-3-carboxamide] | < 25 | < 25 | < 25 | 50 to 80 |

The remaining lines, values ahead:

| Ki (DDR2 [1]) [nM] | IC50 (DDR1 [2]) [nM] | Ki (DDR1 [3]) [nM] | IC50 (DDR2 [4]) [nM] | SMILES |
| --- | --- | --- | --- | --- |
| < 25 | < 25 | < 25 | < 25 | Cc1cn(-c2cc(NC(=O)c3csc4c3CCN(C(=O)c3cnc5ccccn35)C4C)cc(C(F)(F)F)c2)cn1 (stereo not shown) [Example 98, 6-(imidazo[1,2-a]pyridine-3-carbonyl)-7-methyl-N-(3-(4-methyl-1H-imidazol-1-yl)-5-(trifluoromethyl)phenyl)-4,5,6,7-tetrahydrothieno[2,3-c]pyridine-3-carboxamide] |
| < 25 | < 25 | < 25 | < 25 | C[C@@H]1c2scc(C(=O)Nc3cccc(C(F)(F)F)c3)c2CCN1C(=O)c1cnc2ccccn12 [Example 100, (R)-6-(imidazo[1,2-a]pyridine-3-carbonyl)-7-methyl-N-(3-(trifluoromethyl)phenyl)-4,5,6,7-tetrahydrothieno[2,3-c]pyridine-3-carboxamide] |
| < 25 | < 25 | < 25 | < 25 | Cc1cn(-c2cc(NC(=O)c3csc4c3CCN(C(=O)c3cnc5ccccn35)[C@@H]4C)cc(C(F)(F)F)c2)cn1 [Example 101, (R)-6-(imidazo[1,2-a]pyridine-3-carbonyl)-7-methyl-N-(3-(4-methyl-1H-imidazol-1-yl)-5-(trifluoromethyl)phenyl)-4,5,6,7-tetrahydrothieno[2,3-c]pyridine-3-carboxamide] |
| < 25 | < 25 | < 25 | 25 to 50 | CC1(C)c2scc(C(=O)Nc3cccc(C(F)(F)F)c3)c2CCN1C(=O)c1cnc2ccccn12 [Example 102, 6-(imidazo[1,2-a]pyridine-3-carbonyl)-7,7-dimethyl-N-(3-(trifluoromethyl)phenyl)-4,5,6,7-tetrahydrothieno[2,3-c]pyridine-3-carboxamide] |
| < 25 | < 25 | < 25 | 25 to 50 | CC1c2scc(C(=O)Nc3cccc(C(F)(F)F)c3)c2CCN1Cc1cnc2cnccn12 (stereo not shown) [Example 103, 6-(imidazo[1,2-a]pyrazin-3-ylmethyl)-7-methyl-N-(3-(trifluoromethyl)phenyl)-4,5,6,7-tetrahydrothieno[2,3-c]pyridine-3-carboxamide] |
| < 25 | < 25 | < 25 | 25 to 50 | O=C(Nc1cncc(C(F)(F)F)c1)c1csc2c1CCN(C(=O)c1cnn3ccncc13)C2 [Example 108, 6-(pyrazolo[1,5-a]pyrazine-3-carbonyl)-N-(5-(trifluoromethyl)pyridin-3-yl)-4,5,6,7-tetrahydrothieno[2,3-c]pyridine-3-carboxamide] |
